Measured values from patent US11000033B2, “Ketone or oxime compound, and herbicide” (NISSAN CHEMICAL CORPORATION, priority 2014, dated 2021).

Key:
Format in all cases: in vivo
rapeseed = test: Test Example 4: effect on crop by soil treatment (symbol g); settings: application herbicide amount 320 g/ha
Outline: (§1)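 Crop seed is sown in spots together with several weed species in a box of sterilized diluvial soil. It is covered by about 1.5 cm of soil and kept in a greenhouse held between 25° C. and 30° C.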

Alopecurus myosuroides = test: Test Example 5: herbicidal effect by foliage application, plastic box (symbol J); settings: 320 g/ha, 3 weeks after application
Outline: (§2)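 Post-emergence spray; diluvial soil (sterilized), ~1.5 cm seed cover; greenhouse 25–30° C; 14-day-old plants; water-diluted emulsion at predetermined dose; visual score at 3 wk post-treatment.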

Stellaria media [1] = test: Test Example 5: herbicidal effect by foliage application, plastic box (symbol P); settings: 320 g/ha, 3 weeks after application
Outline: as §2

rice plant = test: Test Example 5: effect on crop by foliage application, plastic box (symbol b); settings: 320 g/ha, 3 weeks after application
Outline: (§3)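 Foliage-application test plants come from spot sowing in sterilized diluvial soil under a soil layer of about 1.5 cm, grown at 25° C. to 30° C. in a greenhouse.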

Digitaria ciliaris = test: Test Example 5: herbicidal effect by foliage application, plastic box (symbol F); settings: 320 g/ha, 3 weeks after application
Outline: as §2

Apera spica-venti [2] = test: Test Example 5: herbicidal effect by foliage application, plastic box (symbol L); settings: 320 g/ha, 3 weeks after application
Outline: as §2

[3] = tested on: directly sowed rice plant; test: Test Example 3: effect on crop by foliage application, Wagner pot (symbol b); settings: application herbicide amount 320 g/ha
Outline: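 Wagner pot (1/10000 are), alluvial soil, submerged 0.1–0.5 cm; sown E. crus-galli var. crus-galli, L. chinensis, C. difformis, rice; greenhouse 25–30 °C.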

Setaria viridis = test: Test Example 4: herbicidal effect by soil treatment (symbol G); settings: application herbicide amount 320 g/ha
Outline: (§4)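 Seeds were sown in sterilized diluvial soil, covered with about 1.5 cm of soil, and the soil surface was sprayed with a water-diluted emulsion of the compound at a predetermined rate. Plants grew in a greenhouse at 25° C. to 30° C.; effects were scored visually 3 weeks after application.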

[4] = tested on: Echinochloa crus-galli var. crus-galli; test: Test Example 3: herbicidal effect by foliage application, Wagner pot (symbol H); settings: application herbicide amount 320 g/ha
Outline: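 In a shallow-flooded alluvial soil system held at 25–30 °C, plants including rice grew for 14 days and were then sprayed over the foliage with emulsion diluted to a fixed herbicide amount. Visual rating followed at 3 weeks.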

Apera spica-venti [5] = test: Test Example 4: herbicidal effect by soil treatment (symbol L); settings: application herbicide amount 320 g/ha
Outline: as §4

Stellaria media [6] = test: Test Example 4: herbicidal effect by soil treatment (symbol P); settings: application herbicide amount 320 g/ha
Outline: as §4

wheat = test: Test Example 4: effect on crop by soil treatment (symbol e); settings: application herbicide amount 320 g/ha
Outline: as §1

Avena fatua = test: Test Example 5: herbicidal effect by foliage application, plastic box (symbol I); settings: 320 g/ha, 3 weeks after application
Outline: as §2

Chenopodium album = test: Test Example 5: herbicidal effect by foliage application, plastic box (symbol O); settings: 320 g/ha, 3 weeks after application
Outline: as §2

corn = test: Test Example 5: effect on crop by foliage application, plastic box (symbol c); settings: 320 g/ha, 3 weeks after application
Outline: as §3

Lolium multiflorum Lam. = test: Test Example 5: herbicidal effect by foliage application, plastic box (symbol K); settings: 320 g/ha, 3 weeks after application
Outline: as §2

soybean = test: Test Example 4: effect on crop by soil treatment (symbol d); settings: application herbicide amount 320 g/ha
Outline: as §1

SMILES	g (rapeseed) effect on crop grade (rapeseed)	J: Alopecurus myosuroides, herbicidal effect grade (Alopecurus myosuroides)	P: Stellaria media, herbicidal effect grade (Stellaria media [1])	b: directly sowed rice plant, effect on crop grade (rice plant)	F: Digitaria ciliaris, herbicidal effect grade (Digitaria ciliaris)	L: Apera spica-venti, herbicidal effect grade (Apera spica-venti [2])	effect on crop b (directly sowed rice plant), grade 0-5 [3]	G (Setaria viridis) herbicidal effect grade (Setaria viridis)	herbicidal effect on H (Echinochloa crus-galli var. crus-galli), grade 0-5 [4]	L (Apera spica-venti) herbicidal effect grade (Apera spica-venti [5])	P (Stellaria media) herbicidal effect grade (Stellaria media [6])	e (wheat) effect on crop grade (wheat)	I: Avena fatua, herbicidal effect grade (Avena fatua)	O: Chenopodium album, herbicidal effect grade (Chenopodium album)	c: corn, effect on crop grade (corn)	K: Lolium multiflorum Lam., herbicidal effect grade (Lolium multiflorum Lam.)	d (soybean) effect on crop grade (soybean)	further results
CON=C(C)CC1CC(OC(=O)C(C)Oc2ccccc2)=C(c2c(C)cc(C)cc2C)C1=O (stereo not shown) [1-060]	3 (Herbicidal ratio of 40% or higher and lower than 70%)	5 (Herbicidal ratio of 90% or more (almost completely withered))	3 (Herbicidal ratio of 40% or higher and lower than 70%)	5 (Herbicidal ratio of 90% or more (almost completely withered))	5 (Herbicidal ratio of 90% or more (almost completely withered))	5 (Herbicidal ratio of 90% or more (almost completely withered))	5 (Herbicidal ratio of 90% or more (almost completely withered))	5 (Herbicidal ratio of 90% or more (almost completely withered))	5 (Herbicidal ratio of 90% or more (almost completely withered))	5 (Herbicidal ratio of 90% or more (almost completely withered))	0 (Herbicidal ratio of 5% or lower (almost no effect))	2 (Herbicidal ratio of 20% or higher and lower than 40%)	5 (Herbicidal ratio of 90% or more (almost completely withered))	3 (Herbicidal ratio of 40% or higher and lower than 70%)	4 (Herbicidal ratio of 70% or higher and lower than 90%)	5 (Herbicidal ratio of 90% or more (almost completely withered))	0 (Herbicidal ratio of 5% or lower (almost no effect))	
CON=C(C)CC1CC(OCC#C[Si](C)(C)C)=C(c2c(C)cc(C)cc2C)C1=O (stereo not shown) [1-031]	3 (Herbicidal ratio of 40% or higher and lower than 70%)	3 (Herbicidal ratio of 40% or higher and lower than 70%)	0 (Herbicidal ratio of 5% or lower (almost no effect))	3 (Herbicidal ratio of 40% or higher and lower than 70%)	1 (Herbicidal ratio of 5% or higher and lower than 20%)	0 (Herbicidal ratio of 5% or lower (almost no effect))	5 (Herbicidal ratio of 90% or more (almost completely withered))	0 (Herbicidal ratio of 5% or lower (almost no effect))	3 (Herbicidal ratio of 40% or higher and lower than 70%)	0 (Herbicidal ratio of 5% or lower (almost no effect))	0 (Herbicidal ratio of 5% or lower (almost no effect))	0 (Herbicidal ratio of 5% or lower (almost no effect))	3 (Herbicidal ratio of 40% or higher and lower than 70%)	0 (Herbicidal ratio of 5% or lower (almost no effect))	0 (Herbicidal ratio of 5% or lower (almost no effect))	4 (Herbicidal ratio of 70% or higher and lower than 90%)	0 (Herbicidal ratio of 5% or lower (almost no effect))	
CON=C(C)CC1CC(OC(=O)COc2ccccc2[N+](=O)[O-])=C(c2c(C)cc(C)cc2C)C1=O (stereo not shown) [1-071]	4 (Herbicidal ratio of 70% or higher and lower than 90%)	5 (Herbicidal ratio of 90% or more (almost completely withered))	0 (Herbicidal ratio of 5% or lower (almost no effect))	5 (Herbicidal ratio of 90% or more (almost completely withered))	5 (Herbicidal ratio of 90% or more (almost completely withered))	5 (Herbicidal ratio of 90% or more (almost completely withered))	5 (Herbicidal ratio of 90% or more (almost completely withered))	5 (Herbicidal ratio of 90% or more (almost completely withered))	5 (Herbicidal ratio of 90% or more (almost completely withered))	5 (Herbicidal ratio of 90% or more (almost completely withered))	0 (Herbicidal ratio of 5% or lower (almost no effect))	4 (Herbicidal ratio of 70% or higher and lower than 90%)	5 (Herbicidal ratio of 90% or more (almost completely withered))	1 (Herbicidal ratio of 5% or higher and lower than 20%)	5 (Herbicidal ratio of 90% or more (almost completely withered))	3 (Herbicidal ratio of 40% or higher and lower than 70%)	0 (Herbicidal ratio of 5% or lower (almost no effect))	
CON=C(C)CC1CC(OC(=O)COc2cccc(C#N)c2)=C(c2c(C)cc(C)cc2C)C1=O (stereo not shown) [1-074]	4 (Herbicidal ratio of 70% or higher and lower than 90%)						5 (Herbicidal ratio of 90% or more (almost completely withered))	5 (Herbicidal ratio of 90% or more (almost completely withered))	5 (Herbicidal ratio of 90% or more (almost completely withered))	5 (Herbicidal ratio of 90% or more (almost completely withered))	0 (Herbicidal ratio of 5% or lower (almost no effect))	4 (Herbicidal ratio of 70% or higher and lower than 90%)					0 (Herbicidal ratio of 5% or lower (almost no effect))	J: Alopecurus myosuroides, herbicidal effect (criteria 0-5) (Alopecurus myosuroides): 5 (Herbicidal ratio of 90% or more (almost completely withered)); P: Stellaria media, herbicidal effect (criteria 0-5) (Stellaria media [1]): 1 (Herbicidal ratio of 5% or higher and lower than 20%); b: directly sowed rice plant, effect on crop (criteria 0-5) (rice plant): 5 (Herbicidal ratio of 90% or more (almost completely withered)); F: Digitaria ciliaris, herbicidal effect (criteria 0-5) (Digitaria ciliaris): 5 (Herbicidal ratio of 90% or more (almost completely withered)); L: Apera spica-venti, herbicidal effect (criteria 0-5) (Apera spica-venti [2]): 5 (Herbicidal ratio of 90% or more (almost completely withered)); I: Avena fatua, herbicidal effect (criteria 0-5) (Avena fatua): 5 (Herbicidal ratio of 90% or more (almost completely withered)); O: Chenopodium album, herbicidal effect (criteria 0-5) (Chenopodium album): 2 (Herbicidal ratio of 20% or higher and lower than 40%); c: corn, effect on crop (criteria 0-5) (corn): 5 (Herbicidal ratio of 90% or more (almost completely withered)); K: Lolium multiflorum Lam., herbicidal effect (criteria 0-5) (Lolium multiflorum Lam.): 5 (Herbicidal ratio of 90% or more (almost completely withered))
CC(=O)CC1CC(O)=C(c2c(C)cc(-c3ccc(OC(F)(F)F)cc3)cc2C)C1=O (stereo not shown) [7-016]							0 (Herbicidal ratio of 5% or lower (almost no effect))		0 (Herbicidal ratio of 5% or lower (almost no effect))									Effect on crop grade, g: rapeseed (rapeseed): 0 (Herbicidal ratio of 5% or lower (almost no effect)); J: Alopecurus myosuroides, herbicidal effect (criteria of Test Example 1) (Alopecurus myosuroides): 0 (Herbicidal ratio of 5% or lower (almost no effect)); P: Stellaria media, herbicidal effect (criteria of Test Example 1) (Stellaria media [1]): 0 (Herbicidal ratio of 5% or lower (almost no effect)); b: directly sowed rice plant, effect on crop (criteria of Test Example 1) (rice plant): 0 (Herbicidal ratio of 5% or lower (almost no effect)); F: Digitaria ciliaris, herbicidal effect (criteria of Test Example 1) (Digitaria ciliaris): 0 (Herbicidal ratio of 5% or lower (almost no effect)); L: Apera spica-venti, herbicidal effect (criteria of Test Example 1) (Apera spica-venti [2]): 0 (Herbicidal ratio of 5% or lower (almost no effect)); Herbicidal effect grade, G: Setaria viridis (Setaria viridis): 2 (Herbicidal ratio of 20% or higher and lower than 40%); Herbicidal effect grade, L: Apera spica-venti (Apera spica-venti [5]): 0 (Herbicidal ratio of 5% or lower (almost no effect)); Herbicidal effect grade, P: Stellaria media (Stellaria media [6]): 0 (Herbicidal ratio of 5% or lower (almost no effect)); Effect on crop grade, e: wheat (wheat): 0 (Herbicidal ratio of 5% or lower (almost no effect)); I: Avena fatua, herbicidal effect (criteria of Test Example 1) (Avena fatua): 0 (Herbicidal ratio of 5% or lower (almost no effect)); O: Chenopodium album, herbicidal effect (criteria of Test Example 1) (Chenopodium album): 0 (Herbicidal ratio of 5% or lower (almost no effect)); c: corn, effect on crop (criteria of Test Example 1) (corn): 0 (Herbicidal ratio of 5% or lower (almost no effect)); K: Lolium multiflorum Lam., herbicidal effect (criteria of Test Example 1) (Lolium multiflorum Lam.): 0 (Herbicidal ratio of 5% or lower (almost no effect)); Effect on crop grade, d: soybean (soybean): 0 (Herbicidal ratio of 5% or lower (almost no effect))
